{"source": "patent US20060104907A1", "about": "“Biologically potent analogues of the Dmt-Tic pharmacophore and methods of use” (Government of the U.S.A., represented by the Secretary, …, priority 2004, published 2006)", "key": {"δ-opioid receptor [1]": {"biological_target": "T1, δ-opioid receptor (Homo sapiens, UniProt P41143)", "T1 sequence (P41143 whole entry)": "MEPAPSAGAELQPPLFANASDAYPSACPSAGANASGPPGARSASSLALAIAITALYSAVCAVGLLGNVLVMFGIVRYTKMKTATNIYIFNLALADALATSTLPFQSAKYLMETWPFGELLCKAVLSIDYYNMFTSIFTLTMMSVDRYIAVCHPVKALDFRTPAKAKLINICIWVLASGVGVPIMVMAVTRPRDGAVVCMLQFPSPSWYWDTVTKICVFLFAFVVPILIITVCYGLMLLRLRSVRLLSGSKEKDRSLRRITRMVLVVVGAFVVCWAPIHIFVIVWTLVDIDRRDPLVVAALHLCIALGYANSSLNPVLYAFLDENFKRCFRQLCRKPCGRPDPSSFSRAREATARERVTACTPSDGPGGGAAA", "conditions": "cited from earlier work"}, "[2]": {"assay": "Fluorescence emission spectra and quantum yield", "type": "physicochemical", "conditions": "Tris/HCl buffer pH 6.6, excitation 350 nm", "method": "Fluorescence emission spectra were recorded on a Jobin Yvon-Spex FluoroMax-2 spectrofluorometer with 1 nm spectral resolution for excitation and emission. A peptide solution at a concentration of 2×10^−5M in Tris-HCl buffer, pH 6.6, was used. The excitation wavelength was 350 nm. Fluorescence quantum yield (φ) was determined relative to quinine sulfate (Fluka) in 1 N H2SO4 (φ=0.546) as a reference (Meech et al., Journal of Photochemistry, 23: 193 (1983)). The quantum yield was calculated according to the following equation: [formula] where the subscripts S and R refer to the sample ns and reference compound, respectively; E is the integrated area under the corrected emission spectrum; A is the absorbance of the solution at the excitation wavelength. Absorbance values were kept below 0.02 to minimise inner filter and self-quenching effects. Since both the sample and the reference were in aqueous solution, the correction for the refractive index (nS/nR)^2 was considered to be of no significant relevance."}, "μ-opioid receptors [3]": {"biological_target": "T2, μ-opioid receptors (Rattus norvegicus, UniProt P33535)", "T2 construct": "using rat brain synaptosomes (P2 fraction); from tissue; host or cells: rat brain synaptosomes (P2 fraction)", "T2 sequence (P33535 whole entry)": "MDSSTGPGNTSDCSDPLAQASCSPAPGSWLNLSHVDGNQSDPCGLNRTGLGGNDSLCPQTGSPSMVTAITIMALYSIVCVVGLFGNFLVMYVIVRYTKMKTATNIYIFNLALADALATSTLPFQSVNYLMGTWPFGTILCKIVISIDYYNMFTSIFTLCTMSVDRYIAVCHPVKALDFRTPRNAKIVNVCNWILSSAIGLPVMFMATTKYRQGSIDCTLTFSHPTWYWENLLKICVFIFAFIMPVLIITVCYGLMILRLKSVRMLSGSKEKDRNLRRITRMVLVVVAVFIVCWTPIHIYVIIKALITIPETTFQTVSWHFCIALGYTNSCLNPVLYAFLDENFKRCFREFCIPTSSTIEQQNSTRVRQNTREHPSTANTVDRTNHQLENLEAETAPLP", "assay": "Competitive receptor binding assay, rat brain synaptosomes (P2 fraction), [3H]DAMGO"}, "mouse δ-opioid receptors": {"biological_target": "T3, mouse δ-opioid receptors (Mus musculus, UniProt P32300)", "T3 construct": "NG108-15 (mouse N18 neuroblastoma x rat C6 glioma) cell line, which expresses mouse δ-opioid receptors; endogenous in cells; host or cells: NG108-15 (mouse N18 neuroblastoma x rat C6 glioma)", "T3 sequence (P32300 whole entry)": "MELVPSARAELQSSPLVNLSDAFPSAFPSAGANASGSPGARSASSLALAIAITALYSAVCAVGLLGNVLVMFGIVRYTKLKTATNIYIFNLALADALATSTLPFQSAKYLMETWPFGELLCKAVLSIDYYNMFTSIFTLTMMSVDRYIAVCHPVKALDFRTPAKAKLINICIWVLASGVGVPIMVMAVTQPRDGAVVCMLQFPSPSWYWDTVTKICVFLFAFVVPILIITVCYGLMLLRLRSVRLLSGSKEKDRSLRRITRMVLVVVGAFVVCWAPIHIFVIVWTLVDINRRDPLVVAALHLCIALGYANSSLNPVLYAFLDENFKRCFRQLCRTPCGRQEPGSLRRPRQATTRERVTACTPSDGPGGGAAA", "assay": "Confocal microscopic visualization of fluorescent probe binding in NG108-15 cells", "type": "cell-based", "conditions": "for blockage of fluorescence of probe 3 bound to δ-opioid receptors: NG108-15 cells preincubated with antagonist (naltrindole 0.2 μM, 5 min) before adding the probe", "method": "Visualization of δ-opioid receptor sites with the inventive fluorescent probe was obtained by incubating (15 min at 35° C.) the fluorescent tripeptide 3 (0.2 μM) with the NG108-15 (mouse N18 neuroblastoma x rat C6 glioma) cell line, which expresses mouse δ-opioid receptors. […] Localization and visualization of opioid receptor binding sites were obtained by incubating the fluorescent probe with the NG108-15 cells as shown in the left half of the fluorescent photomicrograph obtained from the confocal scanning laser microscope (FIG. 3)."}, "δ-opioid receptors [4]": {"biological_target": "T4, δ-opioid receptors (Rattus norvegicus, UniProt P33533)", "T4 construct": "using rat brain synaptosomes (P2 fraction); from tissue; host or cells: rat brain synaptosomes (P2 fraction)", "T4 sequence (P33533 whole entry)": "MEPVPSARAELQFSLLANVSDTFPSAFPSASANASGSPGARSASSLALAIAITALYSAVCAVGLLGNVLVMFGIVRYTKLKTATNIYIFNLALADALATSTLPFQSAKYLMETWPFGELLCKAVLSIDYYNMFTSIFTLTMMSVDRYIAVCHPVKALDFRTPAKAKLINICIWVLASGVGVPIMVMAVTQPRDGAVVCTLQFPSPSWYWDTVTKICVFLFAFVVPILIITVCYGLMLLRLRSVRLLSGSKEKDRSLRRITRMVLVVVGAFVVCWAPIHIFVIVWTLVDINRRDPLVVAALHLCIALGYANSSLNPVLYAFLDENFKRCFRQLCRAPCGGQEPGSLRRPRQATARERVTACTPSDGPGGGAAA", "assay": "Competitive receptor binding assay, rat brain synaptosomes (P2 fraction), [3H]DPDPE", "conditions": "for fold decrease of δ-opioid receptor selectivity: compared to reference 1; for μ/δ (δ-opioid receptor selectivity): ratio Ki μ / Ki δ"}, "δ-opioid receptors [5]": {"biological_target": "T5, δ-opioid receptors (Mus musculus, UniProt P32300)", "T5 construct": "preparations of mouse vas deferens (MVD, containing δ-opioid receptors); from tissue; host or cells: mouse vas deferens", "T5 sequence (P32300 whole entry)": "as the sequence (P32300 whole entry) above", "assay": "Functional bioactivity in mouse vas deferens (MVD), electrically-evoked twitch", "type": "cell-based", "method": "(§1) Preparations of myenteric plexus-longitudinal muscle obtained from male guinea-pig ileum (GPI, enriched in μ-opioid receptors) and preparations of mouse vas deferens (MVD, containing δ-opioid receptors) were used for field stimulation with bipolar rectangular pulses of supramaximal voltage (Melchiorri et al., Eur. J. Pharm., 195: 201-207 (1991)). Agonists were evaluated for their ability to inhibit the electrically-evoked twitch. The biological potency of the compounds was compared with that of the μ-opioid receptor agonist dermorphin in GPI and with that of the δ-opioid receptor agonist deltorphin C in MVD. The results are expressed as the IC50 values obtained from dose-response curves (Prism™, GraphPad). To evaluate antagonistic properties, compounds 2 and 3 were added to the bath and allowed to interact with tissue receptor sites 5 min before adding deltorphin C. The IC50 values (nM) represent the mean of not less than six fresh tissue samples±SE. […] IC50 and pA2 values (nM) are mean ±SE of at least six experiments conducted with fresh tissues."}, "μ-opioid receptors [6]": {"system": "μ-opioid receptors", "assay": "Functional bioactivity in guinea-pig ileum (GPI), electrically-evoked twitch", "type": "cell-based", "conditions": "agonist activity, inhibition of electrically-evoked twitch", "method": "as §1"}, "δ-opioid receptor [7]": {"biological_target": "T1, δ-opioid receptor", "conditions": "δ-opioid antagonist activity, literature; cited from earlier work"}, "δ-opioid receptors [8]": {"biological_target": "T5, δ-opioid receptors", "conditions": "cited from earlier work"}, "μ-opioid receptors [9]": {"biological_target": "T2, μ-opioid receptors", "conditions": "rat brain synaptosomes; data taken from Balboni et al., J. Med Chem. 2004; read-out: Receptor affinity Ki^u; cited from earlier work"}, "δ-opioid receptors [10]": {"biological_target": "T4, δ-opioid receptors", "conditions": "rat brain synaptosomes; data taken from Balboni et al., J. Med Chem. 2004; read-out: Receptor affinity Ki^δ; cited from earlier work"}}, "note": "Structures can show the parent of a compound that is named as a salt. Where two headings read alike, the source gives them in different places."}
{"molecule": "H-Tyr-Tic-Phe-(Phe)-OH [TIPP]", "values": [{"measurement": "δ-selectivity", "setting": "δ-opioid receptor [1]; Arttamangkul et al., Mol. Pharmacol. 2000", "value": "> 20,000"}]}
{"molecule": "Ac-Glu-NH(CH2)5—NH—(C═S)—NH-fluorescein", "values": [{"measurement": "fluorescence emission maximum", "setting": "[2]", "value": 515, "unit": "nm"}]}
{"molecule": "Cc1cc(O)cc(C)c1C[C@H](N)C(=O)N1Cc2ccccc2C[C@H]1C(=O)N[C@@H](CCC(=O)O)C(=O)NCCCCCNC(=S)Nc1ccc(-c2c3ccc(=O)cc-3oc3cc(O)ccc23)c(C(=O)O)c1", "note": "[Compound 3, 5-(3-{5-[2-({2-[2-amino-3-(4-hydroxy-2,6-dimethyl-phenyl)-propionyl]-1,2,3,4-tetrahydro-isoquinoline-3-carbonyl}-amino)-4-carboxy-butyrylamino]-pentyl}-thioureido)-2-(6-hydroxy-3-oxo-3H-xanten-9-yl)-benzoic acid]", "values": [{"measurement": "Ki", "setting": "μ-opioid receptors [3]", "value": "152 ± 44", "unit": "nM"}, {"measurement": "residual fluorescence after antagonist preincubation", "setting": "mouse δ-opioid receptors; NG108-15 cells, competition with δ-opioid receptor antagonists", "value": "ca. 10%"}, {"measurement": "Ki", "setting": "δ-opioid receptors [4]", "value": "0.035 ± 0.01", "unit": "nM"}, {"measurement": "fold more δ-selective than fluorescent naltrindole derivative", "setting": "δ-opioid receptors [4]; comparator from Korlipara et al. 1997", "value": 857, "unit": "fold"}, {"measurement": "fold more δ-selective than fluorescent naltrindole derivative", "setting": "δ-opioid receptors [4]; comparator from Kshirsagar et al. 1998", "value": 115, "unit": "fold"}, {"measurement": "fold decrease of δ-opioid receptor selectivity", "setting": "δ-opioid receptors [4]", "value": 5, "unit": "fold"}, {"measurement": "δ-opioid receptor binding affinity (in words)", "setting": "δ-opioid receptors [4]; rat brain synaptosomes", "value": "subnanomolar"}, {"measurement": "μ/δ (δ-opioid receptor selectivity)", "setting": "δ-opioid receptors [4]", "value": "4,370"}]}
{"molecule": "Cc1cc(O)cc(C)c1C[C@H](N)C(=O)N1Cc2ccccc2C[C@H]1C(=O)N[C@@H](CCC(=O)O)C(=O)NCCCCCN", "note": "[Compound 2, H-Dmt-Tic-Glu-NH-(CH2)5—NH2]", "values": [{"measurement": "Ki", "setting": "μ-opioid receptors [3]", "value": "380 ± 65", "unit": "nM"}, {"measurement": "fold increase of μ-opioid receptor affinity", "setting": "μ-opioid receptors [3]; compared to the reference tripeptide (1)", "value": 3.6, "unit": "fold"}, {"measurement": "Kb", "setting": "δ-opioid receptors [5]", "value": 1.58, "unit": "nM"}, {"measurement": "MVD activity type", "setting": "δ-opioid receptors [5]; against [D-Ala2]deltorphin I dose-response curves", "value": "competitive antagonist"}, {"measurement": "MVD pA2", "setting": "δ-opioid receptors [5]; antagonism of deltorphin C, Schild plot", "value": 8.8}, {"measurement": "IC50", "setting": "μ-opioid receptors [6]", "value": "> 1000", "unit": "nM"}, {"measurement": "Ki", "setting": "δ-opioid receptors [4]", "value": "0.22 ± 0.04", "unit": "nM"}, {"measurement": "fold decrease of δ-opioid receptor selectivity", "setting": "δ-opioid receptors [4]", "value": 13, "unit": "fold"}, {"measurement": "fold decrease in affinity for δ-opioid receptors", "setting": "δ-opioid receptors [4]; compared to reference H-Dmt-Tic-Glu-NH2 (1)", "value": 3.7, "unit": "fold"}, {"measurement": "μ/δ (δ-opioid receptor selectivity)", "setting": "δ-opioid receptors [4]", "value": 1700}, {"measurement": "melting point", "value": "163 to 165", "unit": "°C"}]}
{"molecule": "2′,6′-dimethyl-L-tyrosine-1,2,3,4-tetrahydroisoquinoline-3-carboxylic acid [Dmt-Tic]", "values": [{"measurement": "Ki^μ/Ki^δ", "setting": "δ-opioid receptor [1]; literature (Salvadori et al. 1995 and others)", "value": "150,780"}, {"measurement": "pA2", "setting": "δ-opioid receptor [7]", "value": 8.2}]}
{"molecule": "H-Dmt-Tic-Glu-NH2 [Compound 1]", "values": [{"measurement": "MVD activity type", "setting": "δ-opioid receptors [8]; Balboni et al., J. Med. Chem. 2004", "value": "partial δ-opioid agonist"}, {"measurement": "IC50", "setting": "δ-opioid receptors [8]; agonist activity, inhibition of electrically-evoked twitch, data taken from Balboni et al. 2004, read-out: MVD (IC50)", "value": "2.58 ± 0.8", "unit": "nM"}, {"measurement": "IC50", "setting": "μ-opioid receptors [6]", "value": "> 1000", "unit": "nM"}, {"measurement": "Ki", "setting": "μ-opioid receptors [9]", "value": "1360 ± 268", "unit": "nM"}, {"measurement": "Ki", "setting": "δ-opioid receptors [10]", "value": "0.06 ± 0.008", "unit": "nM"}]}
{"molecule": "Cc1cc(O)cc(C)c1C[C@H](N)C(=O)N1Cc2ccccc2C[C@H]1C(=O)N[C@@H](CCC(=O)O)C(=O)NCCCCCNC(=S)Nc1ccc(-c2c3ccc(=O)cc-3oc3cc(O)ccc23)c(C(=O)O)c1", "note": "(as salt: TFA) [Compound 3, 5-(3-{5-[2-({2-[2-amino-3-(4-hydroxy-2,6-dimethyl-phenyl)-propionyl]-1,2,3,4-tetrahydro-isoquinoline-3-carbonyl}-amino)-4-carboxy-butyrylamino]-pentyl}-thioureido)-2-(6-hydroxy-3-oxo-3H-xanten-9-yl)-benzoic acid]", "values": [{"measurement": "melting point", "value": "169 to 171", "unit": "°C"}]}
{"molecule": "Oc1ccc2c3c1O[C@H]1c4[nH]c5ccccc5c4C[C@@]4(O)[C@@H](C2)N(CC2CC2)CC[C@]314", "note": "[naltrindole]", "values": [{"measurement": "blockage of fluorescence of probe 3 bound to δ-opioid receptors", "setting": "mouse δ-opioid receptors", "value": "essentially eliminated the fluorescence"}, {"measurement": "blockage of fluorescence of probe 3 bound to δ-opioid receptors", "setting": "mouse δ-opioid receptors; listed as NTI", "value": "considerable blockage of the fluorescence"}]}
